According to publication PMC10299916, “A multi-enzyme machine polymerizes the Haemophilus influenzae type b capsule” (Nature Chemical Biology, 2023):

Columns and labels:
PrsA = target: T1, PrsA (Haemophilus influenzae, UniProt P44328); experiment: HPLC-AEC; assay type: biochemical; settings: Mg2+, pH 8.0, 37 °C
T1 construct: gene prs; recombinant, E. coli M15; cloned in MBP-S3N10-...-His6 vector

Bcs3 = target: T2, Bcs3 (Haemophilus influenzae, UniProt Q2ERG0); experiment: HPLC-AEC and Alcian blue PAGE of polymer formation; assay type: biochemical; settings: Mg2+, pH 8.0, 37 °C
T2 construct: full length, 1,215 residues; N-terminal MBP-S3N10 and C-terminal His6 fusion; E. coli M15

Bcs1 = target: T3, Bcs1 (Haemophilus influenzae, UniProt Q48230); experiment: HPLC-AEC; assay type: biochemical; settings: 5 mM, CTP, Mg2+, pH 8.0, 37 °C
T3 construct: recombinant, E. coli M15; cloned in MBP-S3N10-...-His6 vector

[1] = target: Bcs3 crystallization construct MBP-Bcs3_(2–1162)-His6 after PreScission digest (Bcs3-His6) (Haemophilus influenzae serotype b (strain ATCC 10211)) (UniProt Q2ERG0); experiment: crystal structure

Compound: Nc1ncnc2c1ncn2[C@@H]1O[C@H](COP(=O)(O)OP(=O)(O)OP(=O)(O)O)[C@@H](O)[C@H]1O [ATP]
- HPLC-AEC (PrsA; ribose-5-phosphate): (c) PrsA using ATP, CTP or UTP as donor substrate

Compound: Nc1ccn([C@@H]2O[C@H](COP(=O)(O)OP(=O)(O)OC[C@@H](O)[C@@H](O)[C@@H](O)CO)[C@@H](O)[C@H]2O)c(=O)n1 [CDP-ribitol]
- HPLC-AEC and Alcian blue PAGE of polymer formation (Bcs3; generated in situ by RpiA and Bcs1, with PRPP, CroT donor): CDP-ribitol was only used up in the presence of PRPP, with concomitant production of CMP

Compound: O=P(O)(O)OC[C@H]1OC(O)[C@H](O)[C@@H]1O (stereo partly drawn) [D-ribose-5-phosphate]
- HPLC-AEC (PrsA; ATP): The reaction cascade (e, f) was started with (e) Rib or (f) Rib-5P

Compound: NC(=O)C1=CN([C@@H]2O[C@H](COP(=O)(O)OP(=O)(O)OC[C@H]3O[C@@H](n4cnc5c(N)ncnc54)[C@H](OP(=O)(O)O)[C@@H]3O)[C@@H](O)[C@H]2O)C=CC1 [NADPH]
- HPLC-AEC (Bcs1; ribulose-5-phosphate): presence of Bcs1 in a reaction containing ribulose-5-phosphate led to the consumption of NADPH

Compound: O=P(O)(O)OC[C@H]1O[C@H](OP(=O)(O)OP(=O)(O)O)[C@H](O)[C@@H]1O [PRPP, 5-phospho-α-D-ribose-1-diphosphate]
- HPLC-AEC and Alcian blue PAGE of polymer formation (Bcs3; 5 mM, CDP-ribitol generated in situ by RpiA and Bcs1, CriT donor): Thus, we concluded that PRPP is the donor substrate for Bcs3.

Compound: O=C(CO)[C@H](O)[C@H](O)COP(=O)(O)O [ribulose-5-phosphate]
- HPLC-AEC (Bcs1; NADPH): presence of Bcs1 in a reaction containing ribulose-5-phosphate led to the consumption of NADPH

Compound: Bcs3 crystallization construct MBP-Bcs3_(2–1162)-His6 after PreScission digest (Bcs3-His6) (from UniProt Q2ERG0 2-1162) (enzyme)
- stoichiometry N [1]: 2
